# Article PMC8831244 (Nature methods, 2022)
# T1: OxLight1 (Homo sapiens, UniProt O43614, DEL254-292/I293E/K294R/L160H/M161K/Q254E)
# T1 sequence (O43614 with tags, fused parts or gaps L160H/M161K/DEL254-292/I293E/K294R): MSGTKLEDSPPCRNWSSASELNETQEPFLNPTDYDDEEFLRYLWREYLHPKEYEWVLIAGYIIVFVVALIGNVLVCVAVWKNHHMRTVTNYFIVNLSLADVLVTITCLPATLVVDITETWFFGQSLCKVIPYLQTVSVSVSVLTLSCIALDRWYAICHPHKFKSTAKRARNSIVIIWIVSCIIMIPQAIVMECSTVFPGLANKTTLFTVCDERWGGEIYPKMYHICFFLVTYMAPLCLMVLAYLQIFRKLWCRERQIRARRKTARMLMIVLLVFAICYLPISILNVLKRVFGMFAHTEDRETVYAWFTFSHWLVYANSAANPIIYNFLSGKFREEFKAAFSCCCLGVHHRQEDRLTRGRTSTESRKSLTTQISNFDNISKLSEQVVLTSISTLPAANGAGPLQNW
# B1: OX2R: wild-type human orexin type-2 receptor (protein, UniProt O43614 1-444, looked up)
# Orexin receptor type 2: MSGTKLEDSPPCRNWSSASELNETQEPFLNPTDYDDEEFLRYLWREYLHPKEYEWVLIAGYIIVFVVALIGNVLVCVAVWKNHHMRTVTNYFIVNLSLADVLVTITCLPATLVVDITETWFFGQSLCKVIPYLQTVSVSVSVLTLSCIALDRWYAICHPLMFKSTAKRARNSIVIIWIVSCIIMIPQAIVMECSTVFPGLANKTTLFTVCDERWGGEIYPKMYHICFFLVTYMAPLCLMVLAYLQIFRKLWCRQIPGTSSVVQRKWKPLQPVSQPRGPGQPTKSRMSAVAAEIKQIRARRKTARMLMIVLLVFAICYLPISILNVLKRVFGMFAHTEDRETVYAWFTFSHWLVYANSAANPIIYNFLSGKFREEFKAAFSCCCLGVHHRQEDRLTRGRTSTESRKSLTTQISNFDNISKLSEQVVLTSISTLPAANGAGPLQNW
# How the values were obtained:
# [1] = molecular target: T1, OxLight1; assay type: cell-based; conditions: Almorexant 10 μM after OXB 5 μM
# [2] = tested on: OxLight1 in basal forebrain or LH; test: Photometry with polysomnographic recordings across sleep-wake states; assay type: in vivo, mouse; conditions: 50 mg/kg, per os, mice
# [3] = tested on: OxLight1; test: Photometry during anesthesia; assay type: in vivo, mouse; conditions: isoflurane 2% 10 min or medetomidine 0.5 mg/kg i.p., mice
# [4] = molecular target: T1, OxLight1; assay type: cell-based; conditions: 10 μM, HEK293T
# [5] = molecular target: T1, OxLight1; assay type: cell-based; conditions: 10 μM, HEK293T, 37°C, mono-exponential fit, n = 8 dishes, mean ± SEM
# [6] = tested on: OX2R; test: Intracellular calcium signaling, OX2R-expressing HEK293T cells; assay type: cell-based, human; conditions: orexin-A and orexin-B
# [7] = molecular target: T1, OxLight1; assay type: cell-based; conditions: OxLight1, 10 μM orexin, HEK cells, mean ± SEM
# [8] = tested on: OX2R; test: Mini-G protein recruitment to OX2R, TIRF microscopy; assay type: cell-based, human; conditions: OXB 50 nM
# [9] = tested on: OX2R; test: beta-Arrestin-2 recruitment to OX2R, TIRF microscopy; assay type: cell-based, human; conditions: agonist stimulation 15 min
molecule,measurement,setting,value
CNC(=O)[C@@H](c1ccccc1)N1CCc2cc(OC)c(OC)cc2[C@@H]1CCc1ccc(C(F)(F)F)cc1 [Almorexant],reversal of fluorescence response,[1],fully reversed
Cc1ccc(-n2nccn2)c(C(=O)N2CCN(c3nc4cc(Cl)ccc4o3)CC[C@H]2C)c1 [Suvorexant],effect on OxLight1 response across sleep-wake states,[2],significantly reduced the response of OxLight1
FC(F)OC(Cl)C(F)(F)F (stereo not shown) [isoflurane],effect on OxLight1 signal,[3],significant decrease in OxLight1 signal
Cc1cccc(C(C)c2cnc[nH]2)c1C (stereo not shown) [medetomidine],effect on OxLight1 signal,[3],no change
Dynorphin,OxLight1 response to neuropeptide,[4],lack of response
orexin-B: endogenous orexin neuropeptide,activation time constant τ,[5],618 ± 98 ms
same,intracellular Ca2+ response,[6],robust intracellular Ca^2+ responses
same,"ΔF/F0, maximal response",[7],859 ± 27%
B1,mini-G recruitment,[8],selective and strong recruitment of mini-Gq
same,β-arrestin-2 engagement,[9],robust β-arrestin-2 engagement
